From paper PMC12118337, “Development of a Peptide Inhibitor Targeting the C‐SH2 Domain of the SHP2 Phosphatase” (Chembiochem, 2025) come the findings set out here.

pKd: −log10 of the molar value. Residues, ends and D or L forms follow the SMILES beside them. *: point of attachment. 5FAM = O=C1OC2(c3ccc(O)cc3Oc3cc(O)ccc32)c2ccc(C(=O)*)cc21; X1 = O=C(O)C(C(=O)O)*

Data set [1] in a line: Peptide stability in Jurkat cell lysate (LC-MS). The note with it: 200 µM peptide, WT Jurkat T cell lysate (RIPA buffer with protease inhibitor cocktail), 37 °C in the dark, 0, 6 or 24 h, peak area at 254 nm normalised to FAM (200 µM) internal control, three independent experiments. It counts as in vitro ADME. As to the method: 1. Cell culture and cell lines
Jurkat T cells were cultured in RPMI 1640 GlutaMAX (Thermo Fisher Scientific) supplemented with 10% heat-inactivated fetal bovine serum (FBS; Thermo Fisher Scientific), 100 U/mL penicillin (Sigma-Aldrich) and 100 µg/mL streptomycin (Sigma-Aldrich). HeLa cells were cultured in DMEM low glucose GlutaMAX (Thermo Fisher Scientific) supplemented with 10% fetal bovine serum (FBS; Thermo Fisher Scientific), 100 U/mL penicillin (Sigma-Aldrich) and 100 µg/mL streptomycin (Sigma-Aldrich).
Both cell lines tested negative for mycoplasma contamination.
2. Peptide stability in Jurkat cell lysate
The stability of FAM-labelled peptide 26 in WT Jurkat T cell lysate was evaluated by LC-MS. 106 Jurkat cells were washed with 1 mL PBS and lysed in 1 mL ice-cold RIPA buffer (25 mM Tris-HCl pH 7.5, 150 mM NaCl, 1% Nonidet P-40, 1% sodium deoxycholate, 0.1% SDS) containing cOmplete EDTA-free Protease Inhibitor Cocktail (Roche), on ice for 30 minutes vortexing every 10 minutes. Cell lysate was centrifuged at 20000 x g for 20 minutes at 4°C. […] The supernatant was collected on ice, filtered using a 13 mm syringe filter with a 0.2 µm PTFE membrane (Pall Life Sciences) and analysed by analytical HPLC-MS. The area under the peak at 254 nm corresponding to peptide 26 and FAM was determined. […]

Another data set has as its target T1, SHP2 N‐SH2 domain (Homo sapiens, UniProt Q06124).
T1 construct: SHP2 N-SH2 domain (1–105), C-SH2 domain (106–220), PTP domain (224–541) and; His6 (pETM22 vector) (N, cleaved yes); made in house; host or cells: E. coli BL21(DE3)
T1 sequence (Q06124 1-105): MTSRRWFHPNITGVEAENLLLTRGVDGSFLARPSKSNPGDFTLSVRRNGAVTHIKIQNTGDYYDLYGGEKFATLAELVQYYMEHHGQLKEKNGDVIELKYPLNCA
In words: Fluorescence polarization (FP) binding assay, SHP2 N-SH2 domain. The following applies: 100 nM FAM-labelled peptide, increasing N-SH2 protein, 50 mM HEPES pH 7.5, 150 mM NaCl, 1 mM EDTA, 0.05% Tween 20, FP at 10 min, three independent experiments in technical triplicates, read-out: K D ± SEM, N‐SH2 (FP). On the procedure: buffer and stored in 5 mL binding buffer at 4°C. His-tagged 3C protease (0.5 mg; EMBL) was added to the pooled eluted fractions and dialysed using Spectra Por Dialysis Tubing (MWCO 6-8 kDa, 23 mm; Spectrum Labs) in 1 L of binding buffer at 4°C for 3 hours, then overnight in fresh buffer. A new column was prepared by loading 2 mL Ni-NTA Agarose (Invitrogen) as a 50% slurry in EtOH. The column was washed with 10 mL H2O to remove the EtOH and equilibrated with 10 mL binding buffer. The protein/3C protease mixture was loaded onto the column and incubated for 1 hour at 4°C on a rocker. The flow through containing the protein was collected, the column was washed with 100 mL binding buffer and the 3C protease was eluted with 5 mL elution buffer. Protein purification was monitored by SDS-PAGE using NuPAGE 4-12% Bis-Tris Protein Gels (Invitrogen) run in MOPS buffer (50 mM MOPS, 50 mM Tris-HCl pH 7.7, 1 mM EDTA, 0.1% SDS) followed by Coomassie staining using Coomassie Brilliant Blue (Roth). The purified protein was dialysed into the final storage buffer (50 mM HEPES pH 7.5, 150 mM NaCl, 2 mM DTT, 20% glycerol). Aliquots were prepared and stored at -80°C until required. […]
4. Fluorescence polarization
Fluorescence polarization (FP) was used to measure the binding of FAM-labelled peptides to the SHP2 C-SH2, SHP2 N-SH2, SHP2 PTP, CSK SH2 or Src SH2 domains. Each peptide was added to increasing concentrations of SHP2 C-SH2, SHP2 N-SH2, SHP2 PTP, CSK SH2 or Src SH2 protein in FP buffer (50 mM HEPES pH 7.5, 150 mM NaCl, 1 mM EDTA, 0.05% Tween 20) to give a final peptide […]
concentration of 100 nM in a final volume of 200 µL. For baseline subtraction, each peptide was added to FP buffer, instead of protein, with a final peptide concentration of 100 nM in a final volume of 200 µL. Samples were mixed gently then 3 x 60 µL of each sample was transferred into triplicate wells in a 96-well plate (OptiPlate-96 F Black; PerkinElmer). The FP was immediately measured on a Synergy H1 Microplate Reader (BioTek) with the excitation and emission monitored at 485 nm and 528 nm, respectively, over 30 minutes. FP values were automatically calculated by the Gen5 3.03 (BioTek) software associated with the microplate reader. Data were analysed in Excel 2016 by subtracting baseline values from FP values at 10 minutes. Data were then further analysed in GraphPad Prism 6 by plotting the baseline subtracted FP values against the protein concentration and fitting the data to a variable slope model of non-linear regression to obtain the KD values. Data are from three independent experiments, each performed in technical triplicates.
5. Isothermal titration calorimetry […]
Analysis Software (Malvern Panalytical). For the data analysis, a 1:1 binding stoichiometry between the Ac-ITSM(pTyr) and SH2 domain was assumed. ITC measurements were performed once.

As to `CC[C@H](C)[C@H](NC(=O)[C@@H](NC(=O)[C@H](C)NC(=O)[C@H](Cc1ccc(OC(C(=O)O)C(=O)O)cc1)NC(=O)[C@H](CCC(=O)O)NC(=O)[C@@H](NC(=O)[C@H](CCC(N)=O)NC(=O)c1ccc2c(c1)C(=O)OC21c2ccc(O)cc2Oc2cc(O)ccc21)[C@@H](C)O)[C@@H](C)O)C(=O)N[C@@H](CCCCN)C(=O)N[C@@H](Cc1c[nH]cn1)C(=O)N1CCC[C@H]1C(N)=O` [peptide 26] (5FAM-QTEY(X1)ATIKHP-NH2), in data set [1], the “stability in Jurkat T cell lysate” value is given as “stable”. Further, the pKd at SHP2 N‐SH2 domain is < 4.49.
